Data published in patent publication US20120295920A1, “5-AMINO-4-HYDROXYPENTOYL AMIDES” (priority 2009, published 2012).
Where two headings read alike, the source gives them in different places.

Columns and labels:
[1] = General toxicity assay on mock-infected MT4 cells with CMV-EGFP reporter (CC50); format: cell-based; settings: human
[2] = system: HIV-1 wild-type strain; assay: General antiviral assay, cell-based virus replication in MT4-LTR-EGFP cells, wild-type strain
Method in brief: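 HIV LTR-driven EGFP reporter MT4 cells (150,000 cells/ml) infected at MOI 0.0025 with or without inhibitor at various concentrations. Read-out either GFP fluorescence on day 3 post-infection or resazurin cell viability on day 4.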

[3] = system: HIV-1 IIIB; assay: 50% HS-Rezazurin: antiviral assay in the presence of 50% human serum, MT-4 cells, resazurin cell viability; format: cell-based
Method in brief: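 MT-4 cells infected with HIV-1 IIIB (MOI 0.001 to 0.01 CCID50/cell) for 1 h, washed, then plated onto serial compound dilutions in 50% human serum (10% FCS alternative). After 4 days, EC50 derived from resazurin cell viability.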

[4] = system: HIV-1 Strain C (G048G/V, V082A); assay: microbe, parasite or virus in culture; format: cell-based
Method in brief: (§1)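 MT4 cells stably carrying an HIV LTR-driven EGFP reporter (150,000 cells/ml) were infected at MOI 0.0025 with or without inhibitor dilutions. Replication was read either as GFP fluorescence on day 3 post-infection or as cell viability by resazurin on day 4.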

[5] = system: HIV-1 Strain A (M046I, I084V); assay: microbe, parasite or virus in culture; format: cell-based
Method in brief: as §1

[6] = system: HIV-1 Strain B (M046I, I050V); assay: microbe, parasite or virus in culture; format: cell-based
Method in brief: as §1

[7] = system: mock-infected MT4 cells; assay: General toxicity assay on mock-infected MT4 cells with CMV-EGFP reporter (CC50); format: cell-based
[8] = MT4LTR cells, read-out: TOX-MT4LTR (CC50)
[9] = Human immunodeficiency virus 1, wild-type strain IIIB, MT4-LTR-EGFP cells
[10] = Human immunodeficiency virus 1, IIIB, MT4, 96 h
[11] = Human immunodeficiency virus 1, read-out: C EC50
[12] = Human immunodeficiency virus 1, read-out: A EC50
[13] = Human immunodeficiency virus 1, read-out: B EC50
[14] = mock-infected MT4 cells with CMV-EGFP reporter, read-out: TOX-MT4CMV (CC50)
[15] = wild-type strain IIIB, MT4-LTR-EGFP cells
[16] = clinical isolate Strain C, read-out: C EC50
[17] = clinical isolate Strain A, read-out: A EC50
[18] = clinical isolate Strain B, read-out: B EC50

Row | SMILES | CC50 [1, 8] [µM] | EC50 [2, 9] [nM] | EC50 [3, 10] [nM] | EC50 [4, 11] [nM] | EC50 [5, 12] [nM] | EC50 [6, 13] [nM] | CC50 [1, 14] [µM] | CC50 [7, 8] [µM] | EC50 [2, 15] [nM] | EC50 [3] [nM] | EC50 [4, 16] [nM] | EC50 [5, 17] [nM] | EC50 [6, 18] [nM] | CC50 [7, 14] [µM] | EC50 ([2]; read-out: HIV-IIIB EC50) [nM]
1 | CN(C)c1ccc(-c2ccc(C[C@H](NC(=O)[C@@H](NC(=O)C3(C#N)CC3)C(C)(C)C)[C@@H](O)C[C@@H](Cc3ccccc3F)C(=O)N[C@H]3c4cc(F)ccc4OC[C@H]3O)cc2)cn1 [Compound 53] | > 32 | 2.3 | 9.5 | 2 | 4.1 | 2 | – | – | – | – | – | – | – | – | –
2 | COC(=O)N[C@H](C(=O)N[C@@H](Cc1ccc(-c2ccc(OC)nc2)cc1)[C@@H](O)C[C@@H](Cc1ccccc1F)C(=O)N[C@H]1[C@H](C)CCC[C@H]1O)C(C)(C)C [Compound 96] | > 32 | 0.9 | 2 | 0.5 | 0.7 | 0.4 | – | – | – | – | – | – | – | – | –
3 | COC(=O)N[C@H](C(=O)N[C@@H](Cc1ccc(-c2cc(C)nc(C)c2)cc1)[C@@H](O)C[C@@H](Cc1cccc(Cl)c1)C(=O)N[C@H]1c2ccccc2OC[C@H]1O)C(C)(C)C [Compound 4] | – | 5.6 | 31.2 | 2.7 | 3.9 | 3.9 | > 32 | – | – | – | – | – | – | – | –
4 | COC(=O)N[C@H](C(=O)N[C@@H](Cc1ccc(-c2cnc(C(C)C)s2)cc1)[C@@H](O)C[C@@H](Cc1ccccc1F)C(=O)N[C@H]1c2cc(Cl)ccc2OC[C@H]1O)C(C)(C)C [Compound 32] | – | 5.9 | 28.6 | 3.1 | 5 | 3.7 | 2.2 | – | – | – | – | – | – | – | –
5 | COC(=O)N[C@H](C(=O)N[C@@H](Cc1ccc(-c2ccc(OC)nc2)cc1)[C@@H](O)C[C@@H](Cc1ccccc1Cl)C(=O)N[C@H]1c2ccsc2CC[C@H]1O)C(C)(C)C [Compound 95] | – | – | – | – | – | – | – | 23 | 1.5 | 5.9 | 1 | 2.2 | 1.3 | – | –
6 | COc1ccc(-c2ccc(C[C@H](NC(=O)O[C@H]3CO[C@H]4OCC[C@H]43)[C@@H](O)C[C@@H](Cc3ccccc3F)C(=O)N[C@H]3c4cc(F)ccc4OC[C@H]3O)cc2)cn1 [Compound 80] | – | – | – | – | – | – | – | > 32 | 2.4 | 10.9 | 0.8 | 1.5 | 1.1 | – | –
7 | COC(=O)N[C@H](C(=O)N[C@@H](Cc1ccc(-c2cnc(OC)nc2)cc1)[C@@H](O)C[C@@H](Cc1ccccc1F)C(=O)N[C@H]1c2cc(Cl)ccc2OC[C@H]1O)C(C)(C)C [Compound 48] | – | – | – | – | – | – | – | > 32 | 3.8 | 7.5 | 1.3 | 2.6 | 2.2 | – | –
8 | COC(=O)NC(C(=O)NC(Cc1ccc(-c2ccnc(C)c2)cc1)C(O)CC(Cc1cccc(Cl)c1)C(=O)NC1c2ccccc2OCC1O)C(C)(C)C (stereo not shown) [Compound 1] | – | – | – | – | – | – | – | – | – | 39.3 | 3.7 | 5.7 | 4.8 | > 32 | 7.7
9 | COC(=O)NC(C(=O)NC(Cc1ccc(-c2ccc(OC)nc2)cc1)C(O)CC(Cc1ccccc1F)C(=O)NC1c2cc(Cl)ccc2OCC1O)C(C)(C)C (stereo not shown) [Compound 18] | – | – | – | – | – | – | – | > 32 | 2.7 | 14 | 1.6 | 3 | 2 | > 32 | –
10 | COC(=O)N[C@H](C(=O)N[C@@H](Cc1ccccc1)[C@@H](O)CN(Cc1ccc(-c2ccccn2)cc1)NC(=O)[C@@H](NC(=O)OC)C(C)(C)C)C(C)(C)C [ATV] | – | – | – | – | – | – | – | > 32 | 7.6 | 16 | 62 | 59 | 3.3 | 26 | –
11 | CCc1ncc(-c2ccc(C[C@H](NC(=O)[C@@H](NC(=O)OC)C(C)(C)C)[C@@H](O)C[C@@H](Cc3ccccc3F)C(=O)N[C@H](C(=O)NC)C(C)(C)C)cc2)s1 [Compound 84] | – | – | – | – | – | – | – | – | 6.4 | 28 | 2.4 | 4.7 | 3.3 | > 32 | –
12 | COC(=O)N[C@H](C(=O)N[C@@H](Cc1ccc(-c2cnc(N(C)C)nc2)cc1)[C@@H](O)C[C@@H](Cc1cccc(F)c1)C(=O)N[C@H]1c2cc(F)ccc2OC[C@H]1O)C(C)(C)C [Compound 62] | – | – | – | – | – | – | – | > 32 | 3.2 | 16.3 | 0.9 | 2.2 | 1.5 | – | –
13 | COc1ccc(-c2ccc(C[C@H](NC(=O)O[C@H]3CO[C@H]4OCC[C@H]43)[C@@H](O)C[C@@H](Cc3ccccc3Cl)C(=O)N[C@H]3c4cc(Cl)ccc4OC[C@H]3O)cc2)cn1 [Compound 78] | – | – | – | – | – | – | – | > 32 | 2.1 | 10.6 | 0.9 | 1.9 | 1.4 | – | –
14 | COC(=O)N[C@H](C(=O)N[C@@H](Cc1ccc(-c2ccc(OC)nc2)cc1)[C@@H](O)C[C@@H](Cc1ccccc1F)C(=O)N[C@H]1c2cc(C)ccc2OC[C@H]1O)C(C)(C)C [Compound 66] | – | – | – | – | – | – | – | > 32 | 0.9 | 7.7 | 0.5 | 0.8 | 0.8 | – | –
15 | COC(=O)NC(C(=O)NC(Cc1ccc(-c2ccc(N(C)C)nc2)cc1)C(O)CC(Cc1cccc(Cl)c1)C(=O)NC1c2cc(Cl)ccc2OCC1O)C(C)(C)C (stereo not shown) [Compound 5] | – | – | – | – | – | – | – | – | 4.7 | 28.6 | 5.1 | 5.4 | 4.4 | > 32 | –
16 | CN(C)c1ccc(-c2ccc(CC(NC(=O)C(NC(=O)CN3CCCC3)C(C)(C)C)C(O)CC(Cc3ccccc3F)C(=O)NC3c4cc(Cl)ccc4OCC3O)cc2)cn1 (stereo not shown) [Compound 19] | – | – | – | – | – | – | – | – | 5.3 | 22.1 | 1.8 | 3.7 | 2.4 | > 27 | –
17 | COCCOC(=O)N[C@H](C(=O)N[C@@H](Cc1ccc(-c2ccc(N(C)C)nc2)cc1)[C@@H](O)C[C@@H](Cc1ccccc1F)C(=O)N[C@H]1c2cc(F)ccc2OC[C@H]1O)C(C)(C)C [Compound 34] | – | – | – | – | – | – | – | > 32 | 2.7 | 10 | 1.3 | 2 | 1.5 | > 32 | –
18 | COC(=O)N[C@H](C(=O)N[C@@H](Cc1ccc(-c2ccc(OC)nc2)cc1)[C@@H](O)C[C@@H](Cc1cccc(OC(F)(F)F)c1)C(=O)N[C@H]1[C@H](C)CCC[C@H]1O)C(C)(C)C [Compound 94] | – | – | – | – | – | – | – | > 32 | 0.9 | 7.1 | 1.4 | 1.9 | 0.8 | – | –
19 | COC(=O)N[C@H](C(=O)N[C@@H](Cc1ccc(-c2cc(C)nc(C)c2)cc1)[C@@H](O)C[C@@H](Cc1ccccc1F)C(=O)N[C@H]1c2cccc(Cl)c2OC[C@H]1O)C(C)(C)C [Compound 54] | – | – | – | – | – | – | – | > 32 | 4.8 | 19.8 | 1.6 | 2.7 | 2.1 | – | –
20 | COC(=O)NC(C(=O)NC(Cc1ccc(-c2ccc(OC)nc2)cc1)C(O)CC(Cc1ccccc1F)C(=O)NC1c2ccccc2OCC1O)C(C)(C)C (stereo not shown) [Compound 16] | – | – | – | – | – | – | – | – | 2.5 | 6.6 | 1.1 | 2 | 1.3 | > 32 | –
21 | COCCNC(=O)[C@@H](NC(=O)[C@H](Cc1ccccc1Cl)C[C@H](O)[C@H](Cc1ccc(-c2ccc(OC)nc2)cc1)NC(=O)[C@@H](NC(=O)OC)C(C)(C)C)C(C)(C)C [Compound 98] | – | – | – | – | – | – | – | > 32 | 2.1 | 11.2 | 2.2 | 3.7 | 1 | – | –
22 | COc1ccc(-c2ccc(C[C@H](NC(=O)O[C@H]3CO[C@H]4OCC[C@H]43)[C@@H](O)C[C@@H](Cc3ccccc3Cl)C(=O)N[C@H]3c4cc(F)ccc4OC[C@H]3O)cc2)cn1 [Compound 77] | – | – | – | – | – | – | – | > 32 | 1.9 | 6.5 | 0.7 | 1.6 | 1 | – | –
23 | COC(=O)N[C@H](C(=O)N[C@@H](Cc1ccc(-c2ccc(OC)nc2)cc1)[C@@H](O)C[C@@H](Cc1cccc(F)c1)C(=O)N[C@H]1c2ccc(F)cc2OC[C@H]1O)C(C)(C)C [Compound 85] | – | – | – | – | – | – | – | > 32 | 2.9 | 17.5 | 1.1 | 3 | 1.3 | > 32 | –
24 | COC(=O)NC(C(=O)NC(Cc1ccc(-c2cnc(C)s2)cc1)C(O)CC(Cc1ccccc1F)C(=O)NC1c2cc(Cl)ccc2OCC1O)C(C)(C)C (stereo not shown) [Compound 11] | – | – | – | – | – | – | – | – | 4.2 | 22.4 | 2.1 | 3.9 | 3.5 | > 32 | –
25 | COC(=O)N[C@H](C(=O)N[C@@H](Cc1ccc(-c2cnc(N(C)C)nc2)cc1)[C@@H](O)C[C@@H](Cc1cccc(OC(F)(F)F)c1)C(=O)N[C@H]1c2cc(Cl)ccc2OC[C@H]1O)C(C)(C)C [Compound 49] | – | – | – | – | – | – | – | > 32 | 4.1 | 19 | 2.9 | 5.2 | 3.5 | – | –
